Source: patent EP0438311A2, “Di- and tripeptide renin inhibitors” (MERCK & CO. INC., priority 1990, dated 1991)

Target: T1, human plasma renin (Homo sapiens, UniProt P00797)
T1 construct: from tissue; host or cells: human plasma
T1 sequence (P00797 67-406): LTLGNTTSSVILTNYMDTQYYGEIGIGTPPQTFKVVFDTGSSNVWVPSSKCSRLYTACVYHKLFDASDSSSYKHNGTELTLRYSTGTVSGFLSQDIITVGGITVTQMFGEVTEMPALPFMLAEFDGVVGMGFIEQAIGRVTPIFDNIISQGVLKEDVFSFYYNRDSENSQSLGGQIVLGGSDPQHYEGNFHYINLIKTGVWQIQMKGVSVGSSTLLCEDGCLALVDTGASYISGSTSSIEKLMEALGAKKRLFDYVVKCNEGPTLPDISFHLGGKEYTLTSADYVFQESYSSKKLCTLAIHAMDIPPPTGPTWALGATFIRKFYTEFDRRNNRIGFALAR
Assay: Inhibition of human plasma renin, in vitro method of Boger et al.
Format: biochemical
Details: J. Med. Chem. (1985) 28, 1779, read-out: IC₅₀
Procedure: Inhibition of human plasma renin was assayed using the in vitro method described by Boger, et. al., J. Med. Chem. (1985) 28, 1779. IC₅₀-1.3 nM.

IC50	Molecule
0.97 nM	C=C(C)C[C@H]1COC[C@@H]2C[C@@H]([C@H](O)[C@H](CC3CCCCC3)NC(=O)[C@H](Cc3cnc[nH]3)NC(=O)[C@H](Cc3ccccc3)NC(=O)OC(C)(C)C)C(=O)N12 [Example 3B, Boc-Phe-His-(ACHP)-5(S)-(2-Methallyl)-7-Oxa-9(S)-Indolizidin-3-One-2(S)-yl]
1 nM	CCC[C@H]1COC[C@@H]2C[C@@H]([C@H](O)[C@H](CC3CCCCC3)NC(=O)[C@H](Cc3cnc[nH]3)NC(=O)[C@H](Cc3ccccc3)NC(=O)OC(C)(C)C)C(=O)N21 [Example 3E, Boc-Phe-His-(ACHP)-5(S)-Propyl-7-Oxa-9(S)-Indolizidin-3-One-2(S)-yl]
1.3 nM	C=CC[C@H]1COC[C@@H]2C[C@@H]([C@H](O)[C@H](CC3CCCCC3)NC(=O)[C@H](Cc3c[nH]cn3)NC(=O)[C@H](Cc3ccccc3)NC(=O)OC(C)(C)C)C(=O)N21 [Example 3A, Boc-Phe-His-(ACHP)-5(S)-Allyl-7-Oxa-9(S)-Indolizidin-3-One-2(S)-yl]
2 nM	CC(C)C[C@H]1COC[C@@H]2C[C@@H]([C@H](O)[C@H](CC3CCCCC3)NC(=O)[C@H](Cc3cnc[nH]3)NC(=O)[C@H](Cc3ccccc3)NC(=O)OC(C)(C)C)C(=O)N12 [Example 3C, Boc-Phe-His-(ACHP)-5(S)-(2-Methylpropyl)-7-Oxa-9(S)-Indolizidin-3-One-2(S)-yl]
6.8 nM	Boc-Phe-His-(ACHP)-6(S)-Methyl-9(S)-Indolizidin-3-One-2(S)-yl [Example 3XX]
1 nM	CC(C)(C)OC(=O)N[C@@H](Cc1ccccc1)C(=O)N[C@@H](Cc1cnc[nH]1)C(=O)N[C@@H](CC1CCCCC1)[C@@H](O)[C@@H]1C[C@H]2COC[C@H](C3CCCC3)N2C1=O [Example 3D, Boc-Phe-His-(ACHP)-5(S)-Cyclopentyl-7-Oxa-9(S)-Indolizidin-3-One-2(S)-yl]
